Assay results: patent US10562890B2, “Cancer therapeutics” (UNIVERSITY OF VIRGINIA PATENT FOUNDATION, priority 2014, dated 2020)
In brackets after ≈: the same amount, converted by molar mass. Where two headings read alike, the source gives them in different places.

Legend:
[1] = biological target: CBFβ-SMMHC binding to the RUNX1 Runt domain; settings: U.S. Pat. No. 8,748,618; read-out: IC50, binding of CBF-SMMHC to the RUNX1 Runt domain; cited from earlier work
11 leukemia cell lines = test: Viability of a panel of 11 leukemia cell lines; assay type: cell-based; settings: 48 hours of treatment
From the text: Compounds Al-4-88, Al-4-57, Al-10-47, Al-10-104, and Al-14-91 were screened against a panel of 11 leukemia cell lines with varying genotypes.
The viability is represented as the percent DAPI negative cells relative to DMSO control. Each symbol/color in the graphs of FIG. 4 represent an individual cell line. The symbol represents the mean of independent replicates and the error bars represent the SEM. The table indicates the morphology, type of leukemia, and known mutations for each of the 11 cell lines.

[2] = previous work, Illendula et al. Science 2015; cited from earlier work
[3] = biological target: CBFβ binding to the RUNX1 Runt domain (Homo sapiens (Human), UniProt Q13951); test: FRET assay, inhibition of CBFβ binding to the RUNX1 Runt domain; settings: for IC50: inhibition of wild-type CBFβ binding to the RUNX1 Runt domain, NA = not active; for activity in FRET assay (structure-activity relationship, in words): relative to Al-4-57 or parent compounds
Chain of CBFβ binding to the RUNX1 Runt domain (Q13951 1-141): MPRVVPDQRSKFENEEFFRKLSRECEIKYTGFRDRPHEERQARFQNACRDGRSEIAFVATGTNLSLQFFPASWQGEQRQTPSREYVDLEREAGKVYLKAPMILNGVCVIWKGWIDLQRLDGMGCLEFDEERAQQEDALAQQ
From the text: Fluorescence Resonance Energy Transfer (FRET) Assay:
As described in U.S. Pat. No. 8,748,618 and published PCT application WO2010/132684, a FRET assay can be used to effectively monitor the inhibition of CBF binding to the Runt domain of RUNX proteins (as well as for CBFβ-SMMHC binding to the Runt domain of RUNX proteins). For the assay, the green fluorescent protein derivative Cerulean is fused to the N-terminus of the Runt domain and the green fluorescent protein derivative Venus to the N-terminus of CBFβ (Gorczynski, M. J., J. Grembecka, et al. (2007), “Allosteric inhibition of the protein-protein interaction between the leukemia-associated proteins Runx1 and CBFbeta.” Chem Biol 14(10): 1186-97), or to CBFβ-SMMHC (Illendula, A. et al. Chemical biology. A small-molecule inhibitor of the aberrant transcription factor CBFbeta-SMMHC delays leukemia in mice. Science 347, 779-784, doi:10.1126/science.aaa0314 (2015)). The ratio of the emission intensities at 525 nm and 474 nm, measured after excitation at 433 nm, was used as the readout in this assay. The dynamic range for the FRET assay was determined by adding a 30-fold excess of untagged CBFβ (or CBFβ-SMMHC) to the assay and the associated change in the FRET ratio was defined as 100% inhibition.

[4] = tested on: T-ALL cell lines Jurkat, HBP-ALL, Loucy, and KOPTK1; test: Proliferation of T-ALL cell lines; assay type: cell-based, human
H520 lung cancer cells = test: MTT growth assay, H520 cells; assay type: cell-based; settings: H520, 10 μM, 72 hrs
Description: (§1) Activity of Al-10-104 was tested using several lung cancer cell lines and one immortalized, non-transformed lung cell line. […] Data for the squamous cell carcinoma of the lung cell line H520 and the immortalized normal lung epithelial cell line BEAS-2B are shown in FIG. 10.
(§2) H520 cells were cultured in RPMI 1640 medium, supplemented with fetal bovine serum (10% final concentration), Hepes (1%), and sodium priruvate (1%). The MTT assay used 4×10^5/ml cells. BEAS-2B cells were cultured in DMEM medium with fetal bovine serum (10% final concentration). The MTT assay for the BEAS-2B cell line was performed using 3.5×10^5/ml cells.
(§3) Al-4-88 had no effect on either cell line.

[5] = tested on: BEAS-2B normal lung cells; test: MTT growth assay, BEAS-2B cells; assay type: cell-based; settings: 10 μM, 72 hrs
Description: as §1, §2, §3

[6] = Aqueous solubility in 0.25% DMSO by NMR spectroscopy; assay type: physicochemical; settings: kinetic from dmso stock
Description: Al-10-104, Al-12-126, and Al-14-91 were all soluble at concentrations above 100 μM. […] As the Runt domain is highly conserved among all three RUNX family members, we would expect to see similar effects on binding to RUNX2 or RUNX3. Therefore, the action of the inhibitors will likely affect the activity of all three RUNX family members.

[7] = biological target: binding of CBFβ to RUNX1 in SEM cells (Homo sapiens (Human), UniProt Q13951); test: Co-immunoprecipitation of CBFβ with RUNX1 in SEM cells; assay type: cell-based; settings: 10 μM, 6 hours
Chain of binding of CBFβ to RUNX1 in SEM cells (Q13951 whole entry): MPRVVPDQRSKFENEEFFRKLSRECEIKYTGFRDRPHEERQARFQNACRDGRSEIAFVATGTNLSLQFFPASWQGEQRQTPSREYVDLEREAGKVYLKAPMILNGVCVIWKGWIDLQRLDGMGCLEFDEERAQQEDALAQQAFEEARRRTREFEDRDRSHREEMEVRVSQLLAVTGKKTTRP
Description: To test whether the wild-type CBFβ Inhibitors can disrupt the binding of CBFβ to RUNX1 in cells, co-immunoprecipitation experiments were performed in the SEM cell line. Co-immunoprecipitation assays of lysates from […] SEM cells were treated with Al-4-88^1, Al-10-47, Al-10-104, Al-12-126 and Al-14-91 at 10 μM for 6 hours. RUNX1-bound CBFβ protein levels and immunoprecipitated RUNX1 are shown on the top panel of FIG. 2A. Quantification of RUNX1 bound CBFβ is shown on the bottom graph.

MLL-AF4 leukemia cells = test: Cell death of MLL-AF4 leukemia cells; assay type: cell-based, human
[8] = Sedative effects and tolerability in mice after IP administration; assay type: in vivo; settings: HCl salts with Captisol, IP at 100 mg/kg
From the text: “NA” indicates not active. […] Reasoning that this effect depended on the ability of the compound to cross the blood brain barrier (BBB), compounds Al-12-126 and Al-14-91 have appended morpholine ring substituents to the 5 position of the pyridine ring to increase the polarity of the compounds and thereby limit BBB penetration.

MCF10A-5E cells = test: Multiacini formation in 3D culture of MCF10A-5E cells; assay type: cell-based; settings: shRUNX1 or control cells, 3D culture 10-11 days, compared to carrier control or Al-4-88
From the text: CBFβ inhibitors altered acinar morphogenesis of the basal-like (triple negative) breast epithelial cells and blocked survival of basal-like breast cancer cells in 3D organotypic culture. To evaluate whether CBFβ inhibition would influence the multicellular organization of basal-like breast epithelia, 3D culture of MCF10A-5E cells was used. Knockdown of RUNX1 in these cells delayed proliferation arrest and promoted the formation of nonspherical acini, indicating a role for RUNX1 during morphogenesis.
The multiacini resulting from CBFβ inhibition were not radially symmetric, thereby arguing against a general defect in cell polarity or proliferation arrest. Instead, the inhibitors appeared to be initiating a nascent branching program that is reminiscent of when TGFβ-family signaling is impaired.
FIG. 9A: MCF10A-5E cells stably expressing shRUNX1 or shGFP control were grown in 3D culture for 10-11 days with the indicated compounds and imaged by Brightfield microscopy. The total number of multiacini per chamber was counted and scaled to the shGFP DMSO control. Data are shown as the mean±SEM of eight independent cultures.

[9] = aqueous, 0.25% DMSO, NMR spectroscopy, read-out: aqueous solubility

COc1ccc2[nH]c(-c3ccccn3)nc2c1 [Al-4-57]
IC50 [1]: 22 µM
percent viability (DAPI negative cells relative to DMSO) (11 leukemia cell lines): only very weak activity
half-life in mice [2]: short half-life
IC50 [3]: 34 µM

c1ccc(-c2nc3ccccc3[nH]2)nc1 [Al-4-88, reference compound]
proliferation [4]: did not have such an effect
percent viability (DAPI negative cells relative to DMSO) (11 leukemia cell lines): No activity
cell growth (MTT assay) (H520 lung cancer cells): no effect
cell growth (MTT assay) [5]: no effect

FC(F)(F)Oc1ccc2[nH]c(-c3ccccn3)nc2c1 [Al-10-47]
solubility [6]: 0.44 µM (≈ 0.123 µg/mL)
RUNX1-bound CBFβ (co-immunoprecipitation) [7]: only a modest effect
cell death (MLL-AF4 leukemia cells): induced cell death
percent viability (DAPI negative cells relative to DMSO) (11 leukemia cell lines): significant inhibition of the majority of the cell lines
IC50 [3]: 3.19 ± 0.5 µM

COc1cnc(-c2nc3cc(OC(F)(F)F)ccc3[nH]2)c(OC)c1 [Al-12-16]
IC50 [3]: 1.69 ± 0.18 µM

FC(F)(F)Oc1ccc2[nH]c(-c3ccc(OCCN4CCOCC4)cn3)nc2c1 [Al-12-126]
solubility [6, 9]: > 100 µM
RUNX1-bound CBFβ (co-immunoprecipitation) [7]: reduction in binding
IC50 [3]: 8.91 ± 1.3 µM
sedative effects [8]: did not induce the sedative effects
tolerability [8]: well-tolerated

O=C(O)c1cccnc1-c1nc2cc(OC(F)(F)F)ccc2[nH]1 [Al-12-150]
IC50 [3]: 48.9 ± 1.6 µM

CN(C)c1cccnc1-c1nc2cc(OC(F)(F)F)ccc2[nH]1 [Al-14-18]
IC50 [3]: 4.97 ± 0.27 µM

FC(F)(F)Oc1ccc2[nH]c(-c3ncccc3OCCN3CCOCC3)nc2c1 [Al-14-55]
IC50 [3]: 4.83 ± 0.32 µM

COc1ccnc(-c2nc3cc(OC(F)(F)F)ccc3[nH]2)c1OC [Al-14-72]
IC50 [3]: 1.72 ± 0.23 µM

COc1cc(OCCN2CCOCC2)cnc1-c1nc2cc(OC(F)(F)F)ccc2[nH]1 [Al-14-91]
solubility [6, 9]: > 100 µM
formation of multiacinar structures (MCF10A-5E cells): dramatic increase
RUNX1-bound CBFβ (co-immunoprecipitation) [7]: reduction in binding
percent viability (DAPI negative cells relative to DMSO) (11 leukemia cell lines): significant inhibition of the majority of the cell lines
IC50 [3]: 2.97 ± 0.53 µM
sedative effects [8]: did not induce the sedative effects
tolerability [8]: well-tolerated

COc1ccc2[nH]c(-c3ccccc3)nc2c1 [Compound 2a, 5-methoxy-2-phenyl-1H-benzo[d]imidazole]
activity in FRET assay (structure-activity relationship, in words) [3]: complete loss of activity

COc1ccc2[nH]c(-c3ccco3)nc2c1 [Compound 2b, 2-(furan-2-yl)-5-methoxy-1H-benzo[d]imidazole]
activity in FRET assay (structure-activity relationship, in words) [3]: complete loss of activity

c1ccc(-c2nc3ccccc3[nH]2)nc1 [Compound 3a, 2-(pyridin-2-yl)-1H-benzo[d]imidazole]
activity in FRET assay (structure-activity relationship, in words) [3]: complete loss of activity

CCOc1ccc2[nH]c(-c3ccccn3)nc2c1 [Compound 3b, 5-ethoxy-2-(pyridin-2-yl)-1H-benzo[d]imidazole]
IC50 [3]: ≥ 34.3 µM

Fc1ccc2[nH]c(-c3ccccn3)nc2c1 [Compound 3c, 5-fluoro-2-(pyridin-2-yl)-1H-benzo[d]imidazole]
IC50 [3]: ≥ 34.3 µM

Cc1ccc2[nH]c(-c3ccccn3)nc2c1 [Compound 3d, 5-methyl-2-(pyridin-2-yl)-1H-benzo[d]imidazole]
activity in FRET assay (structure-activity relationship, in words) [3]: loss of activity

FC(F)(F)c1ccc2[nH]c(-c3ccccn3)nc2c1 [Compound 3f, 2-(pyridin-2-yl)-5-(trifluoromethyl)-1H-benzo[d]imidazole]
activity in FRET assay (structure-activity relationship, in words) [3]: loss of activity

COc1cccc2[nH]c(-c3ccccn3)nc12 [Compound 4a, 4-methoxy-2-(pyridin-2-yl)-1H-benzo[d]imidazole]
IC50 [3]: ≥ 34.3 µM
activity in FRET assay (structure-activity relationship, in words) [3]: reduced activity

COc1ccc2[nH]c(-c3cccc(OC)n3)nc2c1 [Compound 4g, 5-methoxy-2-(6-methoxypyridin-2-yl)-1H-benzo[d]imidazole]
activity in FRET assay (structure-activity relationship, in words) [3]: inactive

COc1ccc2[nH]c(-c3cccc(C)n3)nc2c1 [Compound 4h, 5-methoxy-2-(6-methylpyridin-2-yl)-1H-benzo[d]imidazole]
activity in FRET assay (structure-activity relationship, in words) [3]: inactive
